Measurements reported in patent US11655235B2, “Pyrrolidine and piperidine compounds” (YUHAN CORPORATION, priority 2019, dated 2023).

Experiments:
Assay type in all cases: biochemical
[1] = biological target: T1, recombinant human DPP7 (Homo sapiens, UniProt Q9UHL4); assay: DPP7 inhibition, fluorogenic substrate Lys-Pro-AMC; details: recombinant human DPP7
T1 construct: purchased R&D Systems
Summary of the method: (§1)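 Enzyme per reaction: 50 ng DPP9, 20 ng DPP8, 10 ng each DPP7 and PREP. Compounds were serially diluted (8 points, up to 0.5% DMSO) and incubated at 25 °C.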

[2] = biological target: DPP4 (Homo sapiens, UniProt P27487); assay: DPP4 inhibition, fluorogenic substrate H-Gly-Pro-AMC; parameters: purchased R&D Systems; details: recombinant human DPP4
Chain of DPP4 (P27487 whole entry): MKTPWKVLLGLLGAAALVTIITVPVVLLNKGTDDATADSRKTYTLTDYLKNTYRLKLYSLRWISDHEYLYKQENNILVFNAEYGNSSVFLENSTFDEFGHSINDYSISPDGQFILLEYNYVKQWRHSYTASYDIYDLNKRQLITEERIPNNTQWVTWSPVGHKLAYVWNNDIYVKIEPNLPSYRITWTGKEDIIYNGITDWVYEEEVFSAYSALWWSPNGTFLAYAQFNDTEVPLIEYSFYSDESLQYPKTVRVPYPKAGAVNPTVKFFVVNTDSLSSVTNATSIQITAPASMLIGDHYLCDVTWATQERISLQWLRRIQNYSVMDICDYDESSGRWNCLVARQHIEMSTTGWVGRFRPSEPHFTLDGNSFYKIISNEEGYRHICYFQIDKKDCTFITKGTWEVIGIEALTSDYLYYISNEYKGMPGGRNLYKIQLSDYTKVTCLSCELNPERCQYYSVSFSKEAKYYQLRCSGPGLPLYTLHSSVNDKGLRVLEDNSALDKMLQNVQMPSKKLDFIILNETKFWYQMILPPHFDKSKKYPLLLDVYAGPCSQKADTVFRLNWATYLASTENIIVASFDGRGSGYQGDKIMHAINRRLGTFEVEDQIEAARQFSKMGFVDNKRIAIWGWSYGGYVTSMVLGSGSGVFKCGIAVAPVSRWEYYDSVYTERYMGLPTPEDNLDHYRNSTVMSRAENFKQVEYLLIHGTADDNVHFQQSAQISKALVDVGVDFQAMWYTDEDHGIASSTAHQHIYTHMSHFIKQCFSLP

[3] = biological target: T2, recombinant human DPP9 (Homo sapiens, UniProt Q86TI2); assay: DPP9 inhibition, fluorogenic substrate H-Gly-Pro-AMC; details: recombinant human DPP9
T2 construct: purchased R&D Systems
T2 sequence (Q86TI2 whole entry): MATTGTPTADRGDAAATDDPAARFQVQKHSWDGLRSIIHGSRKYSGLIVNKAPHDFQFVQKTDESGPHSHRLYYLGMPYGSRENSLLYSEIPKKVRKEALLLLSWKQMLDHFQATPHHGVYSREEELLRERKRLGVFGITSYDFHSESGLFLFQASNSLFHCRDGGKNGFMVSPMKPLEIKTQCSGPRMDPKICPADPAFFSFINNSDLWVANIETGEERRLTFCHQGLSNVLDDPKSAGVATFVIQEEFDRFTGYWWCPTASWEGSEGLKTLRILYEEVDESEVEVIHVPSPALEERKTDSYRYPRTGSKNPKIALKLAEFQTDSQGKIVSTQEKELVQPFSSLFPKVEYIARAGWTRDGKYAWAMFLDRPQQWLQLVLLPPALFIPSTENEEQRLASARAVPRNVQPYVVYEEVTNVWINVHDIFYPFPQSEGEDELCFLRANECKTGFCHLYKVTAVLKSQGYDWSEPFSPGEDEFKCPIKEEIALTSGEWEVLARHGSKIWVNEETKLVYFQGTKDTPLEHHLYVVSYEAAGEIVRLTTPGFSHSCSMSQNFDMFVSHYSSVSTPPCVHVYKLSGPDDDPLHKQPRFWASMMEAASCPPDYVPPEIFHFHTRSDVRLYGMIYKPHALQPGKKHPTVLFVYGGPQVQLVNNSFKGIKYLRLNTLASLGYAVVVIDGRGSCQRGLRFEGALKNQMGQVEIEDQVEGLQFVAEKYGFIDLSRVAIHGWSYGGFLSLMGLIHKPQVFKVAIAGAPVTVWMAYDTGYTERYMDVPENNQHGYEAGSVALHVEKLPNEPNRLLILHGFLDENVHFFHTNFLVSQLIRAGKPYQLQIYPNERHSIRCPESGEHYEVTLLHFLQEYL
Summary of the method: as §1

[4] = biological target: T3, Recombinant human FAP (Homo sapiens, UniProt Q12884); assay: FAP FRET assay, FGF21-sequence FRET peptide substrate; details: FRET peptide with human FGF21 sequence, 6 μM, 37° C.
T3 construct: purchased R&D systems
T3 sequence (Q12884 1-760): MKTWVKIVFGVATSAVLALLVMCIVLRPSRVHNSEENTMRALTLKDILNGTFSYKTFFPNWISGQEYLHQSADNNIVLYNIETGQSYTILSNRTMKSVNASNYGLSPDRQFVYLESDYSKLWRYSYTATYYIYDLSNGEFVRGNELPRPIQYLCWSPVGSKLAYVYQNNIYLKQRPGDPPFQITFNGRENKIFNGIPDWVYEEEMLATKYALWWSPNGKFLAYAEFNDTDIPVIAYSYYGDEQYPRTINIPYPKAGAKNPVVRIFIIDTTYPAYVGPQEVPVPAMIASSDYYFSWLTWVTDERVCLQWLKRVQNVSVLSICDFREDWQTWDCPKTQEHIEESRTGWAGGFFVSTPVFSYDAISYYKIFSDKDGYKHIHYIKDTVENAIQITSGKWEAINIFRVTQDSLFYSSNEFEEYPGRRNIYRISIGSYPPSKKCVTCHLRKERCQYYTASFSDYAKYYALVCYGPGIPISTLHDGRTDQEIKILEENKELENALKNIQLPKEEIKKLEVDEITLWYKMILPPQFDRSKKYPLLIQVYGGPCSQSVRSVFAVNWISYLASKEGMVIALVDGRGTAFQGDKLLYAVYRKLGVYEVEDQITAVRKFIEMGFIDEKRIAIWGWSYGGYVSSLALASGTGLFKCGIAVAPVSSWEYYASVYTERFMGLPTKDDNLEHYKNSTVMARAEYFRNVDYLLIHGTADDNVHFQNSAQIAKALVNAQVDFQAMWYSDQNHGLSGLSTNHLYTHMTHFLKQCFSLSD
Summary of the method: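 Recombinant human FAP, 10 ng per reaction, in 50 mM HEPES pH 7.2 with 150 mM NaCl, 0.1 mg/ml BSA, 1 mM EDTA; HyLite Fluor 488/QXL 520 FRET peptide of human FGF21 sequence at 6 μM final, ≤0.1% DMSO, 37° C. IC50 from 8-point curves by four-parameter logistic fit.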

[5] = biological target: T4, recombinant human PREP (Homo sapiens, UniProt P48147); assay: PREP inhibition, fluorogenic substrate Z-Gly-Pro-AMC; details: Inhibitory Activity (IC50, nM) PREP, recombinant human PREP
T4 construct: purchased R&D System
T4 sequence (P48147 1-710): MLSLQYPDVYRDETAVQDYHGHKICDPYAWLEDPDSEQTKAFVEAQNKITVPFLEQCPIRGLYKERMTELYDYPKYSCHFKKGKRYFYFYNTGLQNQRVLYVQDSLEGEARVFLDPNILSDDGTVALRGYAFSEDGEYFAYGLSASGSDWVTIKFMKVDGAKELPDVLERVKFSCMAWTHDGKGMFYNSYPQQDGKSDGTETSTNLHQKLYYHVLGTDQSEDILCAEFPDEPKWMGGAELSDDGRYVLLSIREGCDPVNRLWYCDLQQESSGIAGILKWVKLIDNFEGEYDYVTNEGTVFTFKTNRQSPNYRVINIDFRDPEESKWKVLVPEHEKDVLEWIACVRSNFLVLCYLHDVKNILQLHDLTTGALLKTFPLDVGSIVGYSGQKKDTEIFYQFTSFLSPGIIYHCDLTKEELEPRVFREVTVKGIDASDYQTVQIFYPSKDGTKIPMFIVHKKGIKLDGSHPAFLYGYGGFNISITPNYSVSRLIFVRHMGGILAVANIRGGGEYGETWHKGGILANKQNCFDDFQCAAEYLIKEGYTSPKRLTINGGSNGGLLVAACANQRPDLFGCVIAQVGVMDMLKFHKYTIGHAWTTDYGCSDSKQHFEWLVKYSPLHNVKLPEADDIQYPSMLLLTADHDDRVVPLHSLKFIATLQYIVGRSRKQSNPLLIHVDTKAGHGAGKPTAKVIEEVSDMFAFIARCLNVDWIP
Summary of the method: as §1

Row | IC50 [1] | IC50 [2] | IC50 [3] | IC50 [4] | IC50 [5] | SMILES
1 | 369 nM | 1800 nM | 657 nM | 5.2 nM | 2740 nM | Cc1cnc2ccc(N[C@@H]3CCN(CC(=O)N4C[C@@H](F)C[C@H]4C#N)C3)cc2c1 [Example 211, (2S,4S)-4-fluoro-1-[2-[(3R)-3-[(3-methyl-6-quinolyl)amino]pyrrolidin-1-yl]acetyl]pyrrolidine-2-carbonitrile]
2 | 206 nM | 1960 nM | 1160 nM | 8 nM | 5230 nM | COc1ccnc2ccc(N[C@@H]3CCN(CC(=O)N4C[C@@H](F)C[C@H]4C#N)C3)cc12 [Example 212, (2S,4S)-4-fluoro-1-[2-[(3R)-3-[(4-methoxy-6-quinolyl)amino]pyrrolidin-1-yl]acetyl]pyrrolidine-2-carbonitrile]
3 | 393 nM | 1740 nM | 1390 nM | 3.5 nM | 3020 nM | Cc1cc(N[C@@H]2CCN(CC(=O)N3C[C@@H](F)C[C@H]3C#N)C2)cc2cccnc12 [Example 213, (2S,4S)-4-fluoro-1-[2-[(3R)-3-[(8-methyl-6-quinolyl)amino]pyrrolidin-1-yl]acetyl]pyrrolidine-2-carbonitrile]
4 | 764 nM | 1290 nM | 970 nM | 3.8 nM | 3030 nM | N#C[C@@H]1C[C@H](F)CN1C(=O)CN1CC[C@@H](Nc2cc(F)c3ncccc3c2)C1 [Example 214, (2S,4S)-4-fluoro-1-[2-[(3R)-3-[(8-fluoro-6-quinolyl)amino]pyrrolidin-1-yl]acetyl]pyrrolidine-2-carbonitrile]
5 | 544 nM | 1160 nM | 631 nM | 1.5 nM | 3150 nM | N#C[C@@H]1C[C@H](F)CN1C(=O)CN1CC[C@@H](Nc2cc(Cl)c3ncccc3c2)C1 [Example 215, (2S,4S)-4-fluoro-1-[2-[(3R)-3-[(8-chloro-6-quinolyl)amino]pyrrolidin-1-yl]acetyl]pyrrolidine-2-carbonitrile]
6 | 399 nM | 1350 nM | 822 nM | 1.7 nM | 2560 nM | N#C[C@@H]1C[C@H](F)CN1C(=O)CN1CC[C@@H](Nc2cc(C(F)(F)F)c3ncccc3c2)C1 [Example 216, (2S,4S)-4-fluoro-1-[2-[(3R)-3-[[8-(trifluoromethyl)-6-quinolyl]amino]pyrrolidin-1-yl]acetyl]pyrrolidine-2-carbonitrile]
7 | 960 nM | 11000 nM | 5550 nM | 4.4 nM | 14900 nM | CCOc1ccc(N[C@H]2CCN(CC(=O)N3CCC[C@H]3C#N)C2)c2cccnc12 [Example 274, (2S)-1-[2-[(3S)-3-[(8-ethoxy-5-quinolyl)amino]pyrrolidin-1-yl]acetyl]pyrrolidine-2-carbonitrile]
8 | 90.4 nM | 1430 nM | 1590 nM | 1.7 nM | 6120 nM | CCOc1ccc(N[C@H]2CCN(CC(=O)N3C[C@@H](F)C[C@H]3C#N)C2)c2cccnc12 [Example 275, (2S,4S)-4-fluoro-1-[2-[(3S)-3-[(8-ethoxy-5-quinolyl)amino]pyrrolidin-1-yl]acetyl]pyrrolidine-2-carbonitrile]
9 | 3490 nM | 977 nM | 5330 nM | 14 nM | 3030 nM | N#C[C@@H]1C[C@H](F)CN1C(=O)CN1CC[C@H](Nc2ccc(O)c3ncccc23)C1 [Example 276, (2S,4S)-4-fluoro-1-[2-[(3S)-3-[(8-hydroxy-5-quinolyl)amino]pyrrolidin-1-yl]acetyl]pyrrolidine-2-carbonitrile]
10 | 193 nM | 1040 nM | 740 nM | 3 nM | 1230 nM | Cc1cc(N[C@H]2CCN(CC(=O)N3C[C@@H](F)C[C@H]3C#N)C2)cc2cccnc12 [Example 277, (2S,4S)-4-fluoro-1-[2-[(3S)-3-[(8-methyl-6-quinolyl)amino]pyrrolidin-1-yl]acetyl]pyrrolidine-2-carbonitrile]
11 | 615 nM | 610 nM | 593 nM | 3.5 nM | 1280 nM | N#C[C@@H]1C[C@H](F)CN1C(=O)CN1CC[C@H](Nc2cc(F)c3ncccc3c2)C1 [Example 278, (2S,4S)-4-fluoro-1-[2-[(3S)-3-[(8-fluoro-6-quinolyl)amino]pyrrolidin-1-yl]acetyl]pyrrolidine-2-carbonitrile]
12 | 398 nM | 254 nM | 614 nM | 1.5 nM | 637 nM | N#C[C@@H]1C[C@H](F)CN1C(=O)CN1CC[C@H](Nc2cc(Cl)c3ncccc3c2)C1 [Example 279, (2S,4S)-4-fluoro-1-[2-[(3S)-3-[(8-chloro-6-quinolyl)amino]pyrrolidin-1-yl]acetyl]pyrrolidine-2-carbonitrile]
13 | 184 nM | 839 nM | 674 nM | 2.1 nM | 970 nM | N#C[C@@H]1C[C@H](F)CN1C(=O)CN1CC[C@H](Nc2cc(C(F)(F)F)c3ncccc3c2)C1 [Example 280, (2S,4S)-4-fluoro-1-[2-[(3S)-3-[[8-(trifluoromethyl)-6-quinolyl]amino]pyrrolidin-1-yl]acetyl]pyrrolidine-2-carbonitrile]
14 | 241 nM | 3470 nM | 4850 nM | 5.8 nM | 5060 nM | CN(C)C(=O)c1ccc(N[C@H]2CCN(CC(=O)N3C[C@@H](F)C[C@H]3C#N)C2)c2cccnc12 [Example 282, N,N-dimethyl-5-[[(3S)-1-[2-oxo-2-[(2S,4S)-2-cyano-4-fluoro-pyrrolidin-1-yl]ethyl]pyrrolidin-3-yl]amino]quinoline-8-carboxamide]
15 | 932 nM | 2390 nM | 1640 nM | 10.6 nM | 574 nM | CN(C(=O)c1ccc(N[C@H]2CCN(CC(=O)N3C[C@@H](F)C[C@H]3C#N)C2)c2cccnc12)c1ccccc1 [Example 284, N-methyl-N-phenyl-5-[[(3S)-1-[2-oxo-2-[(2S,4S)-2-cyano-4-fluoro-pyrrolidin-1-yl]ethyl]pyrrolidin-3-yl]amino]quinoline-8-carboxamide]
16 | 333 nM | 2500 nM | 1080 nM | 3.9 nM | 2450 nM | CN(Cc1ccccc1)C(=O)c1ccc(N[C@H]2CCN(CC(=O)N3C[C@@H](F)C[C@H]3C#N)C2)c2cccnc12 [Example 285, N-benzyl-N-methyl-5-[[(3S)-1-[2-oxo-2-[(2S,4S)-2-cyano-4-fluoro-pyrrolidin-1-yl]ethyl]pyrrolidin-3-yl]amino]quinoline-8-carboxamide]
17 | 677 nM | 18500 nM | 1210 nM | 14 nM | 11400 nM | CN(Cc1ccccc1)C(=O)c1ccc(N[C@H]2CCN(CC(=O)N3CCC[C@H]3C#N)C2)c2cccnc12 [Example 288, N-benzyl-N-methyl-5-[[(3S)-1-[2-oxo-2-[(2S)-2-cyanopyrrolidin-1-yl]ethyl]pyrrolidin-3-yl]amino]quinoline-8-carboxamide]
